# Reference: publication PMC8619434 (Viruses, 2021)
# Where a name gives a salt, the structure may show the parent alone.
# Legend:
# [1] = in vitro; settings: human
# [2] = tested on: VSV-G pseudovirus; test: microbe, parasite or virus in culture; type: cell-based, vesicular stomatitis virus; settings: for activity at 10 µM: Pseudovirus, 293T/ACE2, read-out: % Infectivity of VSV-G pv
# [3] = tested on: SARS-CoV-2 spike protein pseudovirus; test: microbe, parasite or virus in culture; type: cell-based; settings: for activity at 10 µM: 293T/ACE2, 48 h, read-out: % Infectivity of SARS-2-Spike pv
structure (smiles),measurement,setting,value
COc1c2ccoc2cc2oc(=O)ccc12 [5-methoxypsoralen],viability at 10 µM,[1],111%
COc1c2occc2cc2ccc(=O)oc12 [8-methoxypsoralen],viability at 10 µM,[1],105%
CN1CCC(=C2c3ccccc3CCn3c(C=O)cnc32)CC1 [Alcaftadine],viability at 10 µM,[1],97%
O=C1c2c(O)cccc2C([C@@H]2O[C@H](CO)[C@@H](O)[C@H](O)[C@H]2O)c2cc(CO)cc(O)c21 (stereo partly shown) [Aloin],viability at 10 µM,[1],103%
CCOC(=O)c1c(CSc2ccccc2)n(C)c2cc(Br)c(O)c(CN(C)C)c12 [Arbidol],activity at 10 µM,[2],62%
same,activity at 10 µM,[3],18%
"CNC(=O)c1ccccc1Sc1ccc2c(/C=C/c3ccccn3)n[nH]c2c1 [Axitinib (AG 013736), Axitinib]",activity at 10 µM,[2],2%
same,viability,[1]; % Viability of SARS-2-Spike pv,69%
same,activity at 10 µM,[3],1%
NC(=O)N1c2ccccc2C=Cc2ccccc21 [Carbamazepine],viability at 10 µM,[1],105%
CC(C(=O)O)c1ccc2c(c1)[nH]c1ccc(Cl)cc12 (stereo not shown) [Carprofen],viability at 10 µM,[1],103%
COc1ccccc1OCCNCC(O)COc1cccc2[nH]c3ccccc3c12 (stereo not shown) [Carvedilol],viability at 10 µM,[1],81%
CC(C)/N=c1\cc2n(-c3ccc(Cl)cc3)c3ccccc3nc-2cc1Nc1ccc(Cl)cc1 [Clofazimine],viability at 10 µM,[1],77%
CN1CCN(C2=Nc3cc(Cl)ccc3Nc3ccccc32)CC1 [Clozapine],viability at 10 µM,[1],103%
C=C1CC[C@H]2C(=C)CC[C@H]3C(=C)C(=O)O[C@@H]3[C@@H]12 [Dehydrocostus Lactone],viability at 10 µM,[1],90%
CC(=O)Oc1cccc2c1C(=O)c1c(OC(C)=O)cc(C(=O)O)cc1C2=O [Diacerein],viability at 10 µM,[1],126%
c1ccc2c(c1)sc1ccccc12 [Dibenzothiophene],viability at 10 µM,[1],102%
C[C@]12CCC(=O)C=C1[C@@H]1C[C@@H]1[C@H]1[C@@H]3[C@@H]4C[C@@H]4[C@@]4(CCC(=O)O4)[C@@]3(C)CC[C@@H]12 [Drospirenone],activity at 10 µM,[2],381%
NC1=NCC2c3ccccc3Cc3ccccc3N12 (stereo not shown) [Epinastine HCl],viability at 10 µM,[1]; % viability (Table S3),94%
CC(=O)O[C@H]1Cc2ccccc2N(C(N)=O)c2ccccc21 [Eslicarbazepine acetate],viability at 10 µM,[1],102%
CCc1cccc2c3c([nH]c12)C(CC)(CC(=O)O)OCC3 (stereo not shown) [Etodolac],viability at 10 µM,[1],100%
"COc1cc2c(Oc3ccc(NC(=O)C4(C(=O)Nc5ccc(F)cc5)CC4)cc3F)ccnc2cc1OCCCN1CCOCC1 [Foretinib (GSK1363089), Foretinib]",activity at 10 µM,[2],11%
same,viability,[1]; % Viability of SARS-2-Spike pv,63%
same,activity at 10 µM,[3],10%
c1cn2cc(-c3ccc4cn[nH]c4c3)nc(Nc3ccc(N4CCOCC4)cc3)c2n1 [GS-9973],activity at 10 µM,[2],1%
same,viability,[1],69%
same,activity at 10 µM,[3],0%
CN1CCC(=C2c3ccccc3CC(=O)c3sccc32)CC1 [Ketotifen Fumarate],viability at 10 µM,[1],97%
Cc1cc(Nc2cc(CN3CCOCC3)c3nc(C)c(Cc4ccc(Cl)cc4F)n3n2)n[nH]1 [LY2784544],activity at 10 µM,[2],1%
same,viability,[1]; % Viability of SARS-2-Spike pv,76%
same,activity at 10 µM,[3],2%
CN1CCN(C2=Nc3ccccc3Oc3ccc(Cl)cc32)CC1 [Loxapine Succinate],viability at 10 µM,[1],94%
"COc1cc(Nc2ncc3c(n2)-c2ccc(Cl)cc2C(c2c(F)cccc2OC)=NC3)ccc1C(=O)O [MLN8237 (Alisertib), Alisertib]",activity at 10 µM,[2],18%
same,viability at 10 µM,[1],63%
same,viability,[1]; % Viability of SARS-2-Spike pv,63 to 83%
same,activity at 10 µM,[3],15 to 18%
CN1CCCCC1CCN1c2ccccc2Sc2ccc([S+](C)[O-])cc21 (stereo not shown) [Mesoridazine besylate],viability at 10 µM,[1]; % viability (Table S3),97%
CN1CCN2c3ncccc3Cc3ccccc3C2C1 (stereo not shown) [Mirtazapine],viability at 10 µM,[1],104%
Cc1ccnc2c1NC(=O)c1cccnc1N2C1CC1 [Nevirapine],viability at 10 µM,[1],103%
Cc1cc2c(s1)Nc1ccccc1N=C2N1CCN(C)CC1 [Olanzapine],viability at 10 µM,[1],106%
CN(C)CC/C=C1/c2ccccc2COc2ccc(CC(=O)O)cc21 [Olopatadine HCl],viability at 10 µM,[1],99%
NC(=O)N1c2ccccc2CC(=O)c2ccccc21 [Oxcarbazepine],viability at 10 µM,[1],109%
CC(C(=O)O)c1ccc2c(c1)Cc1cccnc1O2 (stereo not shown) [Pranoprofen],viability at 10 µM,[1],114%
OCCOCCN1CCN(C2=Nc3ccccc3Sc3ccccc32)CC1 [Quetiapine Fumarate],viability at 10 µM,[1]; % viability (Table S3),96%
CCC(=O)NCC[C@@H]1CCc2ccc3c(c21)CCO3 [Ramelteon],viability at 10 µM,[1],99%
Nc1c2c(nc3ccccc13)CCCC2 [Tacrine hydrochloride],viability at 10 µM,[1]; % viability (Table S3),97%
CC1CCC2(OC1)OC1CC3C4CCC5CC(OC6OC(CO)C(O)C(O)C6OC6OC(CO)C(O)C(O)C6O)CCC5(C)C4CCC3(C)C1C2C (stereo not shown) [Timosaponin A3],activity at 10 µM,[2],85%
same,viability,[1]; % Viability of SARS-2-Spike pv,55%
same,activity at 10 µM,[3],5%
CC(=O)OCC[N+](C)(C)C [acetylcholine],% Infectivity of SARS-2-Spike pv,[3],did not enhance infectivity
Clc1ccc2c(c1)C(N1CCNCC1)=Nc1ccccc1O2 [amoxapine],activity at 10 µM,[2],95%
same,viability,[1]; % Viability of SARS-2-Spike pv,103%
same,activity at 10 µM,[3],20%
COc1ccc2cc1Oc1ccc(cc1)C[C@H]1c3c(cc4c(c3Oc3cc5c(cc3OC)CCN(C)[C@@H]5C2)OCO4)CCN1C [cepharanthine],activity at 10 µM,[2],1%
same,activity at 10 µM,[3],1%
Clc1ccc2c(c1)CCc1cccnc1C2=C1CCNCC1 [desloratadine],activity at 10 µM,[2],82%
same,viability,[1]; % Viability of SARS-2-Spike pv,99%
COc1cc2c(cc1OC)CN(CCc1ccc(NC(=O)c3cccc4c(=O)c5cccc(OC)c5[nH]c34)cc1)CC2 [elacridar],viability at 10 µM,[1],97%
C[C@]12CC[C@@H]3c4ccc(O)cc4CC[C@H]3[C@@H]1CC[C@@H]2O [estradiol],% Infectivity of SARS-2-Spike pv,[3],did not enhance infectivity
C[C@]12CC[C@@H]3c4ccc(O)cc4CC[C@H]3[C@@H]1C[C@@H](O)[C@@H]2O [estriol],% Infectivity of SARS-2-Spike pv,[3],did not enhance infectivity
CCOC(=O)c1ncn2c1CN(C)C(=O)c1cc(F)ccc1-2 [flumazenil],viability at 10 µM,[1],104%
NCCc1c[nH]cn1 [histamine],% Infectivity of SARS-2-Spike pv,[3],did not enhance infectivity
NC(=O)N1CCC(CC(=O)N2CCC([C@H]3c4ncc(Br)cc4CCc4cc(Cl)cc(Br)c43)CC2)CC1 [lonafarnib],viability at 10 µM,[1],111%
CN1CCN2c3ccccc3Cc3ccccc3C2C1 (stereo not shown) [mianserin Hcl],viability at 10 µM,[1],100%
C=C1C(=O)[C@]23[C@H](O)[C@H]1CC[C@H]2[C@@]12CO[C@]3(O)[C@@H](O)[C@@H]1C(C)(C)CC[C@@H]2O [oridonin],activity at 10 µM,[2],37%
same,activity at 10 µM,[3],9%
CC(=O)c1c(C)c2cnc(Nc3ccc(N4CCNCC4)cn3)nc2n(C2CCCC2)c1=O.Cl [palbociclib HCl],% Infectivity of VSV-G pv,[2],63%
CC(=O)c1c(C)c2cnc(Nc3ccc(N4CCNCC4)cn3)nc2n(C2CCCC2)c1=O [palbociclib isethionate],activity at 10 µM,[2],32%
CC(=O)[C@H]1CC[C@H]2[C@@H]3CCC4=CC(=O)CC[C@]4(C)[C@H]3CC[C@]12C [progesterone],% Infectivity of SARS-2-Spike pv,[3],did not enhance infectivity
NCCc1c[nH]c2ccc(O)cc12 [serotonin],% Infectivity of SARS-2-Spike pv,[3],did not enhance infectivity
COc1ccc2cc1Oc1ccc(cc1)C[C@H]1c3cc(c(OC)cc3CCN1C)Oc1c(OC)c(OC)cc3c1[C@H](C2)N(C)CC3 [tetrandrine],activity at 10 µM,[2],39%
same,activity at 10 µM,[3],1%
Cc1cn([C@H]2C[C@H](N=[N+]=[N-])[C@@H](CO)O2)c(=O)[nH]c1=O [zidovudine],% Infectivity of VSV-G pv,[2],potently inhibited
